Reference: patent publication US9775797B2, “Personal care composition” (Conopco, Inc., priority 2012, dated 2017)

Tested on: HaCaT and HeMnDP co-culture
Assay: coculture melanin content assay (after Calcein-AM viability check)
Type: cell-based
Details: melanin content vs control, 72 hrs incubation
Protocol: The samples at various concentrations were analysed for skin lightening efficacy using the coculture melanin content assay, the details of which are given below: Set up of Co-cultures: • 1. 4*10^4 HaCaT and 4×10^4 […] (1:1) per well (single wells/treatment) in 12-well Nunc plates on Day 0 are seeded so as to establish a co-culture system. • 2. The volume of media per well should be 1 mL of a 1:1 mix of Melanocyte Growth Media and Keratinocyte Growth Media • 3. 24 hrs later, fresh media containing actives are added. Again 1 mL of a 1:1 mix of MGM and KGM for active addition are used. • 4. Plates are incubated for 72 hrs in a 37° C. CO2 incubator. • 5. […] In the meantime, the fluorescence is measured (excitation at 490 nm and emission at 520 nm) using TECAN instrument after 30 min of dye incubation. • 5. After reading the plate, the buffer containing Calcein is removed and melanin content assay is then carried out. […] After the reading for Calcein-AM is taken, the buffer containing Calcein-AM is removed from all the wells. • 2. […] The absorbance is measured in the Lab-5 Tecan instrument at 405 nm. • 6. For non-cytotoxic concentrations (based on Calcein cut-off of ±15% of control), the average MCA is calculated and reported as MCA as percentage of the control sample. The % inhibition is then calculated. […]

Row | SMILES | % Inhibition (sample concentration 0.5 ppm) | inhibition at 14.2 ppm (Homo sapiens, HaCaT, sample concentration 14.2 ppm)
1 | O=C1C[C@@H](c2ccc(O)c(O[C@@H]3O[C@H](CO)[C@@H](O)[C@H](O)[C@H]3O)c2)Oc2cc(O[C@@H]3O[C@H](CO)[C@@H](O)[C@H](O)[C@H]3O)ccc21 [Butrin, butrin] | 31% | –
2 | O=c1cc(CO)occ1O [Example 3, Kojic Acid] | – | 22%
